In PubChem BioAssay AID743442 (Broad Institute, 2014):
Active and inactive are the calls of the source.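 How the source made its calls: active means cell-killing curve, signal falling, whose fitted AC50 is at most twice the top tested dose; inconclusive means flat fit with a moderate signal drop, or a poor fit; inactive means the rest.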

tested on: not listed separately; test: HEK293T cell cytotoxicity, dose response, cytotoxicity control, CellTiter-Glo luminescence, dry powder samples, set 14 (AID 743442); settings: HEK293T viability, ATP luminescence (CellTiter-Glo), 72 h; at 12 µM (top of the series)

Structure (SMILES) | activity change, negative = cytotoxicity
CCN1CCCC1CNC(=O)CSc1c2c(nc3ccc(Cl)cc13)CCCC2 (stereo not given) | -4.32% (inactive)

same assay, conditions: HEK293T viability, ATP luminescence (CellTiter-Glo), 72 h; at 26 µM (top of the series)

Structure (SMILES) | activity change, negative = cytotoxicity
O=C(CSc1cccc2cccnc12)NCc1ccco1 | -4.54% (inactive)
CC1(C)CC(NC(=O)c2ccc(OCC(=O)Nc3cccc(C(F)(F)F)c3)cc2)CC(C)(C)N1 | -24.7% (inactive)
Cc1ccc(NC(=O)COc2ccccc2C(=O)NCCN(C)C)cc1 | -1.02% (inactive)
O=C(CSc1c2c(nc3ccc(Cl)cc13)CCCC2)NCCN1CCOCC1 | -9.3% (inactive)
CN(C(=O)COc1ccc(Cl)cc1C(N)=O)c1ccccc1 | 1.16% (inactive)
CN(C(=O)COc1ccccc1C(N)=O)c1ccccc1 | -5.5% (inactive)
COc1ccc(NC(=O)CSc2c3c(nc4ccc(Cl)cc24)CCCC3)cc1 | -8.96% (inactive)
Cc1cccc(CCNC(=O)CSc2c3c(nc4ccc(Cl)cc24)CCCC3)c1 | -5.98% (inactive)
Cn1cc(SCC(=O)NCc2ccco2)c2ccccc21 | -10.8% (inactive)
O=C(CSc1c2c(nc3ccc(Cl)cc13)CCCC2)NC1CCCC1 | -7.43% (inactive)
O=C(CSc1c2c(nc3ccc(Cl)cc13)CCCC2)NCc1ccccn1 | -4.85% (inactive)
O=C(COc1ccc(C(=O)N2CCC2)cc1)Nc1cccc(C(F)(F)F)c1 | -6.82% (inactive)
O=C(COc1ccccc1C(=O)NCCOc1ccc(Cl)cc1)Nc1cccc(Cl)c1 | -30.7% (inactive)
O=C(CSc1c2c(nc3ccc(Cl)cc13)CCCC2)N1CCOCC1 | -5.19% (inactive)
O=C(CSc1c2c(nc3ccc(Cl)cc13)CCCC2)NCC1(c2ccccc2)CCCC1 | -8.09% (inactive)
O=C(CSc1c2c(nc3ccc(Cl)cc13)CCCC2)NC1CC1 | -2.74% (inactive)
Cn1c(=O)cc(SCC(=O)NCc2ccco2)c2ccccc21 | 0.641% (inactive)
O=C(CSc1c2c(nc3ccc(Cl)cc13)CCCC2)NCc1ccc2c(c1)OCO2 | 0.001% (inactive)
CCCNC(=O)CSc1c2c(nc3ccc(Cl)cc13)CCCC2 | -1.94% (inactive)
O=C(O)CSc1c2c(nc3cc(C(=O)NCc4cccs4)ccc13)CCCC2 | -5.37% (inactive)
CCOc1ccc(NC(=O)COc2ccc(C(=O)N3CCC(C(N)=O)CC3)cc2OC)cc1 | -5.36% (inactive)

Structure (SMILES) | activity change, negative = cytotoxicity
COc1ccc(OCCNC(=O)c2ccccc2OCC(=O)Nc2ccc(NC(C)=O)cc2)cc1 | -1.7% (inactive)
CC(C)NC(=O)CSc1c2c(nc3ccc(Cl)cc13)CCCC2 | -3.4% (inactive)
O=C(CSc1ccc2ccccc2n1)NCc1ccco1 | -3.39% (inactive)
CCOC(=O)C1CCN(C(=O)c2ccc(OCC(=O)Nc3ccc(OCC)cc3)c(OC)c2)CC1 | -2.45% (inactive)
O=C(CSc1c2c(nc3ccc(Cl)cc13)CCCC2)NCc1ccc(F)cc1 | -14.3% (inactive)
NC(=O)C1CCN(C(=O)c2ccc(OCC(=O)Nc3cccc(C(F)(F)F)c3)cc2)CC1 | -5.23% (inactive)
CCN(CC)C(=O)CSc1c2c(nc3ccc(Cl)cc13)CCCC2 | 0.809% (inactive)
O=C(CSc1c2c(nc3ccc(Cl)cc13)CCCC2)N1CCCCC1 | -5.3% (inactive)
O=C(CSc1c2c(nc3ccc(Cl)cc13)CCCC2)Nc1ccccc1 | -10.7% (inactive)
CN(CCOc1ccccc1)C(=O)c1ccc(OCC(=O)Nc2cccc(C(F)(F)F)c2)cc1 | -0.662% (inactive)
O=C(CSc1c2c(nc3ccc(Cl)cc13)CCCC2)NC1CCN(Cc2ccccc2)CC1 | -3.75% (inactive)
O=C(COc1ccc(C(=O)NCC2CCCO2)cc1)Nc1cccc(C(F)(F)F)c1 (stereo not given) | -6.65% (inactive)
O=C(CSc1c2c(nc3cc(Cl)ccc13)CCCC2)N(Cc1ccco1)C1CCCC1 | -4.09% (inactive)
Cc1ccc(CNC(=O)CSc2c3c(nc4cc(Cl)ccc24)CCCC3)o1 | -11.4% (inactive)
O=C(CSc1c2c(nc3ccc(Cl)cc13)CCCC2)NCc1ccco1 | -6.1% (inactive)
O=C(COc1ccccc1C(=O)NCc1ccccc1)Nc1ccccc1 | -5.85% (inactive)
O=C(CSc1c2c(nc3ccc(Cl)cc13)CCCC2)NCCN1CCN(Cc2ccccc2)CC1 | -10.3% (inactive)
CCCCOc1ccc(NC(=O)COc2ccccc2C(=O)NCCOc2ccccc2)cc1 | -30.8% (inactive)
COc1ccc(CNC(=O)CSc2c3c(nc4ccc(Cl)cc24)CCCC3)cc1 | -6.81% (inactive)
COCCNC(=O)CSc1c2c(nc3ccc(Cl)cc13)CCCC2 | -7.42% (inactive)
O=C(CSc1c2c(nc3ccc(Cl)cc13)CCCC2)NCC1CCCO1 (stereo not given) | -12.2% (inactive)

Structure (SMILES) | activity change, negative = cytotoxicity
CCOC(=O)C1CCN(C(=O)c2ccc(OCC(=O)N3CCOCC3)c(OC)c2)CC1 | -7.89% (inactive)
Cc1ccc(CNC(=O)CSc2c3c(nc4ccc(Cl)cc24)CCCC3)o1 | -8.3% (inactive)
COCCN(Cc1ccco1)C(=O)CSc1c2c(nc3cc(Cl)ccc13)CCCC2 | -8.9% (inactive)
CCOC(=O)N1CCC(NC(=O)CSc2c3c(nc4ccc(Cl)cc24)CCCC3)CC1 | -0.517% (inactive)
CN(CCNC(=O)CSc1c2c(nc3ccc(Cl)cc13)CCCC2)Cc1ccccc1 | -3.21% (inactive)
COc1cc(C(=O)NCCCN(C)C)ccc1OCC(=O)Nc1cccc(C(F)(F)F)c1 | -18.3% (inactive)
O=C(CSc1c2c(nc3ccc(Cl)cc13)CCCC2)N1CCNC1=O | -2.06% (inactive)
CC(Sc1c2c(nc3ccc(Cl)cc13)CCCC2)C(=O)NCc1ccco1 (stereo not given) | -3.71% (inactive)
O=C(CSc1c2c(nc3ccc(Cl)cc13)CCCC2)NCCCc1ccccc1 | -6.44% (inactive)
Cc1ccc(CNC(=O)CSc2c3c(nc4ccc(Cl)cc24)CCCC3)cc1 | -7.44% (inactive)
Cc1cccc(NC(=O)CSc2c3c(nc4ccc(Cl)cc24)CCCC3)n1 | -9.51% (inactive)
O=C(COc1ccc(C(=O)N2CCN(C(=O)C3CC3)CC2)cc1)Nc1cccc(C(F)(F)F)c1 | -7.18% (inactive)
O=C(CSc1c2c(nc3ccc(Cl)cc13)CCCC2)NCc1cccnc1 | -3.63% (inactive)
COc1ccc(N(Cc2cccs2)C(=O)COc2ccccc2C(=O)Nc2ccccc2)cc1 | -7.68% (inactive)
O=C(CSc1c2c(nc3ccc(Cl)cc13)CCCC2)N1CCC(N2CCCCC2)CC1 | -3.26% (inactive)
COC(=O)CCCN(C)C(=O)c1ccc(OCC(=O)Nc2cccc(OC)c2)cc1 | -4.85% (inactive)
O=C(CSc1c2c(nc3ccc(Cl)cc13)CCCC2)NCc1cccs1 | -5.31% (inactive)
Cc1ccc2nc(Cl)cc(SCC(=O)NCc3ccco3)c2c1 | -11.1% (inactive)
O=C(CSc1c2c(nc3ccccc13)CCCC2)NCc1ccco1 | -6.44% (inactive)
CN(C)c1ccc(NC(=O)COc2ccccc2C(=O)N2CCOCC2)cc1 | -0.871% (inactive)
CN(C(=O)COc1ccccc1C(=O)Nc1ccccc1)c1ccccc1 | -12.4% (inactive)

tested on: HEK293T viability, ATP luminescence (CellTiter-Glo), 72 h; test: as above; settings: not given

Structure (SMILES) | AC50
O=C(CSc1c2c(nc3ccc(Cl)cc13)CCCC2)N1CCN(Cc2ccccc2)CC1 | > 52 µM (inactive)
O=C(CSc1c2c(nc3ccc(Cl)cc13)CCCC2)Nc1ccc(Cl)cc1 | > 52 µM (inactive)
COc1cc(CNCCCN2CCOCC2)ccc1OCC(=O)Nc1cccc(C(F)(F)F)c1 | > 52 µM (inactive)
O=C(COc1ccc(C(=O)NC2CCCCC2)cc1)Nc1cccc(C(F)(F)F)c1 | > 52 µM (inactive)
CCN(CC)CCCNC(=O)c1ccc(OCC(=O)Nc2ccccc2C(F)(F)F)c(OC)c1 | > 52 µM (inactive)
CN(C(=O)COc1ccccc1C(=O)NCCc1ccccc1)c1ccccc1 | > 52 µM (inactive)
